The record followed here is paper PMC5908784, “Extracellular loops 2 and 3 of the calcitonin receptor selectively modify agonist binding and efficacy” (Biochemical Pharmacology, 2018).

Molecules are shown by their SMILES. Residue numbers refer to the chain shown, from its start. Where a SMILES comes first, the peptide text is derived from it. Bridges are numbered along the chain shown (N, C = ends).

Experiment in all cases: cAMP accumulation
Holding throughout (format): cell-based
A general note: Changes in cAMP serve as a functional read-out for many G protein-coupled receptors.

For test [1], the target named is T1, hCTR S364A (Homo sapiens, UniProt P30988, S364A).
T1 construct: c-Myc (N); expressed in transfected cells
T1 sequence (P30988 25-474 S364A): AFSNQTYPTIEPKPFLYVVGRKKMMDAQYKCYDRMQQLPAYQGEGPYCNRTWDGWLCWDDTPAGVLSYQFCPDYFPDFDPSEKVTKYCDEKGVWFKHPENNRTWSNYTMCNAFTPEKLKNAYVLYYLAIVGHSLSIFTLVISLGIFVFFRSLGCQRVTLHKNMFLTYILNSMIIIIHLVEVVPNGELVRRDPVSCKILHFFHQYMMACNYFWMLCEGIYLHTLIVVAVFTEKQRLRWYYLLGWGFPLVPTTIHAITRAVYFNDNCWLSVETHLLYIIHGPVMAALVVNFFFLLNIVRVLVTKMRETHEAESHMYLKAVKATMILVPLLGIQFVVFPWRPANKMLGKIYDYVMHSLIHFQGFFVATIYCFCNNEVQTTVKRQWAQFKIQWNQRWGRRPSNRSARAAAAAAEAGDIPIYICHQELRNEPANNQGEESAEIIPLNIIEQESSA
As to conditions: mean ± S.E.M.; for Emax: cAMP maximal response, SEM; for EC50: cAMP, CV1-FlpIn cells, 30 min, IBMX. Summed up: (§1)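 Read-out: cAMP accumulated over 30 min of graded ligand exposure in IBMX-containing medium, expressed relative to 100 μM forskolin. Potency (EC50) and maximal effect (Emax) derive from 3-parameter logistic concentration-response curves.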

Test [2] deals with T2, hCTR N286A (Homo sapiens, UniProt P30988, N286A).
T2 construct: c-Myc (N); expressed in transfected cells
T2 sequence (P30988 25-474 N286A): T1 sequence (P30988 25-474 S364A) with N262A, A340S
As to conditions: mean ± S.E.M.; for Emax: cAMP maximal response, SEM; for EC50: cAMP, CV1-FlpIn cells, 30 min, IBMX. In a few lines:
as §1

In test [3] the target is T3, hCTR D287A (Homo sapiens, UniProt P30988, D287A).
T3 construct: c-Myc (N); expressed in transfected cells
T3 sequence (P30988 25-474 D287A): T1 sequence (P30988 25-474 S364A) with D263A, A340S
The following applies: mean ± S.E.M.; for Emax: cAMP maximal response, SEM. In a few lines: as §1

The target of test [4] is T4, hCTR F359A (Homo sapiens, UniProt P30988, F359A).
T4 construct: expressed in transfected cells
T4 sequence (P30988 25-474 F359A): T1 sequence (P30988 25-474 S364A) with F335A, A340S
The following applies: mean ± S.E.M.; for Emax: cAMP maximal response, SEM; for EC50: cAMP, CV1-FlpIn cells, 30 min, IBMX. Summed up: as §1

The target of test [5] is T5, hCTR K366A (Homo sapiens, UniProt P30988, K366A).
T5 construct: c-Myc (N); expressed in transfected cells
T5 sequence (P30988 25-474 K366A): T1 sequence (P30988 25-474 S364A) with A340S, K342A
The following applies: mean ± S.E.M.; for Emax: cAMP maximal response, SEM; for EC50: cAMP, CV1-FlpIn cells, 30 min, IBMX. Summed up:
as §1

As to `CC[C@H](C)[C@H](NC(=O)[C@H](C)NC(=O)[C@@H](NC(=O)[C@H](CCC(N)=O)NC(=O)[C@@H]1CCCN1C(=O)[C@H](Cc1ccccc1)NC(=O)[C@@H](NC(=O)[C@H](Cc1c[nH]cn1)NC(=O)[C@H](Cc1ccccc1)NC(=O)[C@H](CCCCN)NC(=O)[C@H](CC(N)=O)NC(=O)[C@H](Cc1ccccc1)NC(=O)[C@H](CC(=O)O)NC(=O)[C@H](CCC(N)=O)NC(=O)[C@@H](NC(=O)[C@H](Cc1ccc(O)cc1)NC(=O)[C@@H](NC(=O)CNC(=O)[C@H](CC(C)C)NC(=O)[C@H](CCSC)NC(=O)[C@@H]1CSSC[C@H](N)C(=O)NCC(=O)N[C@@H](CC(N)=O)C(=O)N[C@@H](CC(C)C)C(=O)N[C@@H](CO)C(=O)N[C@@H]([C@@H](C)O)C(=O)N1)[C@@H](C)O)[C@@H](C)O)[C@@H](C)O)[C@@H](C)O)C(=O)NCC(=O)N[C@H](C(=O)NCC(=O)N[C@@H](C)C(=O)N1CCC[C@H]1C(N)=O)C(C)C` [hCT], the Emax – broadly, the greatest response seen or fitted, relative to the assay's reference – was 97 ± 9% in test [1]; 126 ± 6% in test [2]; 140 ± 18% in test [3]; 130 ± 9% in test [4]; 74 ± 3% in test [5].

Regarding `CC(C)C[C@H](NC(=O)CNC(=O)[C@H](C)NC(=O)[C@H](CC(C)C)NC(=O)[C@H](CCCNC(=N)N)NC(=O)[C@H](Cc1cnc[nH]1)NC(=O)[C@@H](NC(=O)[C@@H](NC(=O)[C@@H]1CSSC[C@H](NC(=O)[C@H](C)N)C(=O)N[C@@H](CC(=O)O)C(=O)N[C@@H]([C@@H](C)O)C(=O)N[C@@H](C)C(=O)N[C@@H]([C@@H](C)O)C(=O)N1)C(C)C)[C@@H](C)O)C(=O)N[C@@H](CC(C)C)C(=O)N[C@@H](CO)C(=O)N[C@@H](CCCNC(=N)N)C(=O)N[C@@H](CO)C(=O)NCC(=O)NCC(=O)N[C@H](C(=O)N[C@H](C(=O)N[C@@H](CCCCN)C(=O)N[C@@H](CC(N)=O)C(=O)N[C@@H](CC(N)=O)C(=O)N[C@@H](Cc1ccccc1)C(=O)N[C@H](C(=O)N1CCC[C@H]1C(=O)N[C@H](C(=O)N[C@@H](CC(N)=O)C(=O)N[C@H](C(=O)NCC(=O)N[C@@H](CO)C(=O)N[C@@H](CCCCN)C(=O)N[C@@H](C)C(=O)N[C@@H](Cc1ccccc1)C(N)=O)C(C)C)[C@@H](C)O)C(C)C)C(C)C)C(C)C` [hαCGRP], the Emax amounted to 83 ± 10% in test [1], 46 ± 16% in test [2], 53 ± 8% in test [4] and 73 ± 13% in test [5]. The EC50 (as a rule, the concentration that produces a half-maximal response) in test [1] is 16.6 nM; in test [2] it was 14.1 nM; in test [4] it was 18.6 nM; in test [5], 5.37 nM.

Consider `CSCC[C@H](NC(=O)CNC(=O)[C@H](CO)NC(=O)[C@H](Cc1ccccc1)NC(=O)[C@H](CCCNC(=N)N)NC(=O)[C@H](Cc1c[nH]cn1)NC(=O)[C@H](Cc1ccccc1)NC(=O)[C@H](CC(N)=O)NC(=O)[C@H](CC(N)=O)NC(=O)[C@H](CC(C)C)NC(=O)[C@H](CC(N)=O)NC(=O)[C@H](CCCNC(=N)N)NC(=O)[C@H](Cc1c[nH]c2ccccc12)NC(=O)[C@H](Cc1ccc(O)cc1)NC(=O)[C@H](C)NC(=O)[C@H](CO)NC(=O)[C@H](CC(C)C)NC(=O)[C@@H](NC(=O)[C@@H]1CSSC[C@H](N)C(=O)N[C@@H](CO)C(=O)N[C@@H](CC(N)=O)C(=O)N[C@@H](CC(C)C)C(=O)N[C@@H](CO)C(=O)N[C@@H]([C@@H](C)O)C(=O)N1)C(C)C)C(=O)NCC(=O)N[C@@H](Cc1ccccc1)C(=O)NCC(=O)N1CCC[C@H]1C(=O)N[C@@H](CCC(=O)O)C(=O)N[C@H](C(=O)N1CCC[C@H]1C(N)=O)[C@@H](C)O` [pCT] (H-CSNLSTCVLSAYWRNLNNFHRFSGMGFGPETP-NH2; disulfide 1-7), for which the Emax in test [1] is 166 ± 16%; in test [2], 84 ± 6%; in test [3], 74 ± 9%; in test [4], 113 ± 8%; in test [5], 80 ± 8%. In addition, the EC50 in test [1] was 0.603 nM; in test [2], 0.2 nM; in test [3] (cAMP, CV1-FlpIn cells, 30 min, IBMX) it was 1.91 nM; in test [4], 0.162 nM; in test [5], 0.02 nM.

As for `CC(C)C[C@H](NC(=O)[C@H](CC(N)=O)NC(=O)[C@H](CC(N)=O)NC(=O)[C@H](CO)NC(=O)[C@H](CO)NC(=O)[C@H](CCCNC(=N)N)NC(=O)[C@@H](NC(=O)[C@H](CC(C)C)NC(=O)[C@H](Cc1ccccc1)NC(=O)[C@H](CC(N)=O)NC(=O)[C@H](C)NC(=O)[C@H](CC(C)C)NC(=O)[C@H](CCCNC(=N)N)NC(=O)[C@H](CCC(N)=O)NC(=O)[C@@H](NC(=O)[C@H](C)NC(=O)[C@@H]1CSSC[C@H](NC(=O)[C@@H](N)CCCCN)C(=O)N[C@@H](CC(N)=O)C(=O)N[C@@H]([C@@H](C)O)C(=O)N[C@@H](C)C(=O)N[C@@H]([C@@H](C)O)C(=O)N1)[C@@H](C)O)C(C)C)C(=O)NCC(=O)N1CCC[C@H]1C(=O)N[C@H](C(=O)N[C@@H](CC(C)C)C(=O)N1CCC[C@H]1C(=O)N1CCC[C@H]1C(=O)N[C@H](C(=O)N[C@@H](CC(N)=O)C(=O)N[C@H](C(=O)NCC(=O)N[C@@H](CO)C(=O)N[C@@H](CC(N)=O)C(=O)N[C@H](C(=O)N[C@@H](Cc1ccc(O)cc1)C(N)=O)[C@@H](C)O)C(C)C)[C@@H](C)O)C(C)C` [rAmy], the Emax in test [1] turned out to be 56 ± 7%; in test [2] it was 97 ± 15%; in test [4], 95 ± 9%; in test [5], 71 ± 7%.

`CC(C)C[C@H](NC(=O)[C@H](CCCCN)NC(=O)CNC(=O)[C@H](CC(C)C)NC(=O)[C@@H](NC(=O)[C@@H]1CSSC[C@H](N)C(=O)N[C@@H](CO)C(=O)N[C@@H](CC(N)=O)C(=O)N[C@@H](CC(C)C)C(=O)N[C@@H](CO)C(=O)N[C@@H]([C@@H](C)O)C(=O)N1)C(C)C)C(=O)N[C@@H](CO)C(=O)N[C@@H](CCC(N)=O)C(=O)N[C@@H](CCC(=O)O)C(=O)N[C@@H](CC(C)C)C(=O)N[C@@H](Cc1c[nH]cn1)C(=O)N[C@@H](CCCCN)C(=O)N[C@@H](CC(C)C)C(=O)N[C@@H](CCC(N)=O)C(=O)N[C@H](C(=O)N[C@@H](Cc1ccc(O)cc1)C(=O)N1CCC[C@H]1C(=O)N[C@@H](CCCNC(=N)N)C(=O)N[C@H](C(=O)N[C@@H](CC(N)=O)C(=O)N[C@H](C(=O)NCC(=O)N[C@@H](CO)C(=O)NCC(=O)N[C@H](C(=O)N1CCC[C@H]1C(N)=O)[C@@H](C)O)[C@@H](C)O)[C@@H](C)O)[C@@H](C)O` [sCT]: the Emax in test [1] was determined as 102 ± 7%; in test [2], 103 ± 6%; in test [3] it was 119 ± 7%; in test [4] it was 84 ± 4%; in test [5] it was 81 ± 5%.
